Key:
[1] = mouse, in vivo; cited from earlier work
[2] = test system: fish; assay: treatment of model fish with test substances (drugs arrayed alone or in combination in the water/wells); format: in vivo; details: monotherapy
Description: Fish may be contacted with a test substance, it may be touched or rubbed on their surface or injected into them. A test substance may be added to water in which they are. […] There may be one or multiple fish in each well exposed to the test substance. The test substance may be added prior to the onset of the disease phenotype, concurrent with the onset of the disease phenotype, or subsequent to the onset of the disease phenotype. The same test substance may be added to different wells at different concentration. For example, test substance 1 may be added to well A1 at a concentration of 1 mM, to well A2 at a concentration of 100 uM, to well A3 at a concentration of 10 uM, to well A4 at a concentration of 1 uM and to well A5 at a concentration of 0.1 uM. Then test substance 2 to well B1 etc. The panel of test substances may be known drugs or new chemical entities.
Additionally, the test substances may be added in combination. For example, well A2 may contain test substance 1 ‘and 2, well A3 test substance 1 and 3, well B2 test substance 2 and 3. Alternatively, every well may contain test substance x, with individual wells containing a panel of additional test substances.
In other options, a population of fish in a petri dish or a tank may be employed and treated together, e.g. via addition of one or more or a combination of test substances in the water. […]

Compound	toxicity [1]	concentration showing therapeutic effects [2]
C[C@H]1c2cccc(O)c2C(=O)C2=C(O)[C@]3(O)C(=O)C(C(N)=O)=C(O)[C@@H](N(C)C)[C@@H]3[C@@H](O)[C@@H]21 [Doxycycline, doxycycline]	no apparent toxicity	
CN1C(=O)CN=C(c2ccccc2)c2cc(Cl)ccc21 [diazepam]		35 µM

Reference: US20050015823A1, “Screening methods employing fish model assessment of vision” (priority 2001, published 2005)
